Data taken from the NIST ThermoML archive (doi:10.1021/je400056z).

Assay: xn = mol fraction of the nth substance listed
Details: Liquid, Vibrating tube method

CCCCCCCCCCCCC [tridecane] + O=C=O
Details	mass density [kg/m3]
323.16 K, 14000 kPa, x2 = 0.2526	751.2
323.16 K, 14000 kPa, x2 = 0.7549	788.1
323.16 K, 15000 kPa, x2 = 0.0955	748.5
323.16 K, 15000 kPa, x2 = 0.2526	752.1
323.16 K, 15000 kPa, x2 = 0.7549	791.5
323.16 K, 16000 kPa, x2 = 0.0955	749.2
323.16 K, 16000 kPa, x2 = 0.2526	752.9
323.16 K, 16000 kPa, x2 = 0.7549	794.6
323.16 K, 17000 kPa, x2 = 0.0955	750
323.16 K, 17000 kPa, x2 = 0.2526	753.7
323.16 K, 17000 kPa, x2 = 0.7549	798.1
323.16 K, 18000 kPa, x2 = 0.0955	750.7
323.16 K, 18000 kPa, x2 = 0.2526	754.4
323.16 K, 18000 kPa, x2 = 0.7549	801.2
323.16 K, 19000 kPa, x2 = 0.0955	751.4
323.16 K, 19000 kPa, x2 = 0.2526	755.2
323.16 K, 19000 kPa, x2 = 0.7549	804.1
323.16 K, 20000 kPa, x2 = 0.0955	752.1
323.16 K, 20000 kPa, x2 = 0.2526	755.9
323.16 K, 20000 kPa, x2 = 0.7549	807
323.16 K, 21000 kPa, x2 = 0.0955	752.8
323.16 K, 21000 kPa, x2 = 0.2526	756.6
323.16 K, 21000 kPa, x2 = 0.7549	809.5
323.16 K, 22000 kPa, x2 = 0.0955	753.4
323.16 K, 22000 kPa, x2 = 0.2526	757.3
323.16 K, 22000 kPa, x2 = 0.7549	812.4
323.16 K, 23000 kPa, x2 = 0.0955	754.1
323.16 K, 23000 kPa, x2 = 0.2526	758
323.16 K, 23000 kPa, x2 = 0.7549	815
323.16 K, 24000 kPa, x2 = 0.0955	754.7
323.16 K, 24000 kPa, x2 = 0.2526	758.7
323.16 K, 24000 kPa, x2 = 0.7549	817.5
323.16 K, 25000 kPa, x2 = 0.0955	755.3
323.16 K, 25000 kPa, x2 = 0.2526	759.3
323.19 K, 8000 kPa, x2 = 0.5259	758.8
323.19 K, 9000 kPa, x2 = 0.5259	760.1
323.19 K, 10000 kPa, x2 = 0.5259	761.4
323.19 K, 11000 kPa, x2 = 0.5259	762.6
323.19 K, 12000 kPa, x2 = 0.5259	763.8
323.19 K, 13000 kPa, x2 = 0.5259	764.9
323.19 K, 14000 kPa, x2 = 0.5259	766
323.19 K, 15000 kPa, x2 = 0.5259	767.2
323.19 K, 16000 kPa, x2 = 0.5259	768.2
323.19 K, 17000 kPa, x2 = 0.5259	769.3
323.19 K, 18000 kPa, x2 = 0.5259	770.4
323.19 K, 19000 kPa, x2 = 0.5259	771.4
323.19 K, 20000 kPa, x2 = 0.5259	772.4
323.19 K, 21000 kPa, x2 = 0.5259	773.3
323.19 K, 22000 kPa, x2 = 0.5259	774.3
323.19 K, 23000 kPa, x2 = 0.5259	775.3
323.19 K, 24000 kPa, x2 = 0.5259	776.2
323.19 K, 25000 kPa, x2 = 0.5259	777
333.14 K, 13000 kPa, x2 = 0.8978	737.1
333.14 K, 14000 kPa, x2 = 0.8978	745.4
333.14 K, 15000 kPa, x2 = 0.8978	754
333.14 K, 16000 kPa, x2 = 0.8978	761.2
333.14 K, 17000 kPa, x2 = 0.8978	767.9
333.14 K, 18000 kPa, x2 = 0.8978	774.1
333.14 K, 19000 kPa, x2 = 0.8978	779.5
333.14 K, 20000 kPa, x2 = 0.8978	784.8
333.14 K, 21000 kPa, x2 = 0.8978	789.8
333.14 K, 22000 kPa, x2 = 0.8978	794.7
333.14 K, 23000 kPa, x2 = 0.8978	799.2
333.14 K, 24000 kPa, x2 = 0.8978	803.5
333.14 K, 25000 kPa, x2 = 0.8978	807.8
333.16 K, 8000 kPa, x2 = 0.5259	749
333.16 K, 9000 kPa, x2 = 0.5259	750.4
333.16 K, 10000 kPa, x2 = 0.5259	751.7
333.16 K, 11000 kPa, x2 = 0.5259	753
333.16 K, 12000 kPa, x2 = 0.5259	754.2
333.16 K, 13000 kPa, x2 = 0.5259	755.5
333.16 K, 14000 kPa, x2 = 0.5259	756.7
333.16 K, 15000 kPa, x2 = 0.5259	757.9
333.16 K, 16000 kPa, x2 = 0.5259	759
333.16 K, 17000 kPa, x2 = 0.5259	760.2
333.16 K, 18000 kPa, x2 = 0.5259	761.3
333.16 K, 19000 kPa, x2 = 0.5259	762.4
333.16 K, 20000 kPa, x2 = 0.5259	763.4
333.16 K, 21000 kPa, x2 = 0.5259	764.5
333.16 K, 22000 kPa, x2 = 0.5259	765.5
333.16 K, 23000 kPa, x2 = 0.5259	766.5
333.16 K, 24000 kPa, x2 = 0.5259	767.5
333.16 K, 25000 kPa, x2 = 0.5259	768.5
333.28 K, 12000 kPa, x2 = 0.7549	762.3
333.28 K, 13000 kPa, x2 = 0.7549	766.5
333.28 K, 14000 kPa, x2 = 0.7549	769.6
333.28 K, 15000 kPa, x2 = 0.7549	772.6
333.28 K, 16000 kPa, x2 = 0.7549	775.6
333.28 K, 17000 kPa, x2 = 0.7549	778.6
333.28 K, 18000 kPa, x2 = 0.7549	781.5
333.28 K, 19000 kPa, x2 = 0.7549	784.5
333.28 K, 20000 kPa, x2 = 0.7549	787.4
333.28 K, 21000 kPa, x2 = 0.7549	790.4
333.28 K, 22000 kPa, x2 = 0.7549	793.1
333.28 K, 23000 kPa, x2 = 0.7549	795.7
333.28 K, 24000 kPa, x2 = 0.7549	798.4
333.28 K, 25000 kPa, x2 = 0.7549	800.8
333.3 K, 9000 kPa, x2 = 0.0955	736.6
333.3 K, 9000 kPa, x2 = 0.2526	739.5
333.3 K, 10000 kPa, x2 = 0.0955	737.4
333.3 K, 10000 kPa, x2 = 0.2526	740.4
333.3 K, 11000 kPa, x2 = 0.0955	738.3
333.3 K, 11000 kPa, x2 = 0.2526	741.4
333.3 K, 12000 kPa, x2 = 0.0955	739.1
333.3 K, 12000 kPa, x2 = 0.2526	742.3
333.3 K, 13000 kPa, x2 = 0.0955	739.9
333.3 K, 13000 kPa, x2 = 0.2526	743.1
333.3 K, 14000 kPa, x2 = 0.0955	740.8
333.3 K, 14000 kPa, x2 = 0.2526	744
333.3 K, 15000 kPa, x2 = 0.0955	741.6
333.3 K, 15000 kPa, x2 = 0.2526	744.9
333.3 K, 16000 kPa, x2 = 0.0955	742.3
333.3 K, 16000 kPa, x2 = 0.2526	745.7
333.3 K, 17000 kPa, x2 = 0.0955	743.1
